Test results reported in US12643871B2, “Aryl formamide compound containing chiral sulfur oxide or salt thereof, preparation method, herbicidal composition and use thereof” (Qingdao Kingagroot Chemical Compound Co., Ltd., priority 2019, dated 2026).

Legend:
[1] = system: Echinochloa crusgali; experiment: Weed control effect evaluation in rice field; assay type: in vivo; details: rice field pot, 14 days after treatment, ALS-inhibitor resistant weed from Heilongjiang
Text: (§1) The activity level criteria for harmful plant damage (i.e., growth control rate) are as follows: • Level 5: growth control rate is above 85%; • Level 4: growth control rate is greater than or equal to 60% and less than 85%; • Level 3: growth control rate is greater than or equal to 40% and less than 60%; • Level 2: growth control rate is greater than or equal to 20% and less than 40%; • Level 1: growth control rate is greater than or equal to 5% and less than 20%; • Level 0: growth control rate is less than 5%.
(§2) Rice field soil was loaded into a 1/1,000,000 ha pot. The seeds of Echinochloa crusgali, Scirpus juncoides, Bidens tripartita, Sagittaria trifolia, Monochoria vaginalis and Leptochloa chinensis were sowed and gently covered with soil, then left to stand still in greenhouse in the state of 0.5-1 cm of water storage. The tuber of Sagittaria trifolia was planted in the next day or 2 days later. It was kept at 3-4 cm of water storage thereafter. The weeds were treated by dripping the WP or SC water diluents prepared according to the common preparation method of the compounds of the present invention with pipette homogeneously to achieve specified effective amount when Echinochloa crusgali, Scirpus juncoides, Bidens tripartita, Monochoria vaginalis and Leptochloa chinensis reached 0.5 leaf stage and Sagittaria trifolia reached the time point of primary leaf stage.
(§3) The fertility condition of Echinochloa crusgali, Scirpus juncoides, Bidens tripartita, Leptochloa chinensis, Sagittaria trifolia and Monochoria vaginalis 14 days after the treatment of the compound of the invention and the fertility condition of rice 21 days after the treatment of the compound of the invention respectively with the naked eye. Evaluate the weed control effect with 0-5 activity standard level. Many compounds show excellent activity and selectivity.

[2] = system: Leptochloa chinensis; experiment: Weed control effect evaluation in rice field; assay type: in vivo; details: rice field pot, 14 days after treatment
Text: as §1, §2, §3

[3] = system: Sagittaria trifolia; experiment: Weed control effect evaluation in rice field; assay type: in vivo; details: rice field pot, 14 days after treatment, ALS-inhibitor resistant weed from Heilongjiang
Text: as §1, §2, §3

[4] = system: Monochoria vaginalis; experiment: Weed control effect evaluation in rice field; assay type: in vivo; details: rice field pot, 14 days after treatment, ALS-inhibitor resistant weed from Heilongjiang
Text: as §1, §2, §3

[5] = system: Abutilon theophrasti; experiment: Weeding effect in post-emergence stage; assay type: in vivo; details: 250 g/ha; 2 leaf stage; 15 days after application; fresh weight control rate
How it was run: (§4)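 Reported levels reflect fresh weight growth control rate banded 0 (<5%) through 5 (>85%), averaged over three repetitions. Treatment: foliar spray of 2-leaf-stage greenhouse plants at 15 to 500 g/ha, with 1.5 liter/ha methyl oleate synergist; assessment 15 days after application.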

[6] = system: Echinochloa crusgali; experiment: Weeding effect in post-emergence stage; assay type: in vivo; details: 250 g/ha; 2 leaf stage; 15 days after application; fresh weight control rate
How it was run: as §4

[7] = system: Amaranthus retroflexus; experiment: Weeding effect in post-emergence stage; assay type: in vivo; details: 250 g/ha; 2 leaf stage; 15 days after application; fresh weight control rate
How it was run: as §4

[8] = system: Setaria viridis; experiment: Weeding effect in post-emergence stage; assay type: in vivo; details: 250 g/ha; 2 leaf stage; 15 days after application; fresh weight control rate
How it was run: as §4

[9] = system: Digitaria sanguinalis; experiment: Weeding effect in post-emergence stage; assay type: in vivo; details: 250 g/ha; 2 leaf stage; 15 days after application; fresh weight control rate
How it was run: as §4

[10] = system: Rice; experiment: Transplanted rice safety evaluation; assay type: in vivo, rice (japonica rice/Indica rice); details: 60 g/ha; transplanted 3 leaf stage rice, 21 days after treatment
Text: as §1
In addition, the rice field soil that loaded into the 1/1,000,000 ha pot was leveled to keep water storage at 3-4 cm depth. The 3 leaf stage rice (japonica rice/Indica rice) was transplanted at 3 cm of transplanting depth the next day. The compound of the present invention was treated by the same way after 5 days of transplantation.
as §3

[11] = system: Green Setaria viridis; experiment: Comparison experiment (post-emergence) against racemate / S configuration; assay type: in vivo; details: 30 g/ha; Table 6, post-seedling test conditions
Text: (§5) The above growth control rates are fresh weight control rates.
Experiment on weeding effect in post-emergence stage: monocotyledonous and dicotyledonous weed seeds (Descurainia sophia, Capsella bursa-pastoris, Galium aparine, Stellaria media, Lithospermum arvense, Rorippa indica, Alopecurus aequalis, Beckmannia syzigachne, Sclerochloa dura, Phleum paniculatum, Bromus japonicus, Aegilops tauschii, Phalaris arundinacea, Amaranthus retroflexus, Chenopodiaceae, Commelina communis, Sonchus arvensis, convolvulus arvensis, Cirsium setosum, Solanum nigrum, Acalypha australis, Digitaria sanguinalis, Echinochloa crusgalli, Setaria viridis, Setaria glauca, Leptochloa chinensis, Monochoria vaginalis, Sagittaria trifolia, Scirpus juncoides, Cyperus rotundus, Cyperus iria, Cyperus difformis, Fimbristylis, Portulaca oleracea, Xanthium sibiricum, Pharbitis nil) and major crop seeds (wheat, corn, rice, soybean, cotton, oilseed rape, millet, sorghum, potato, sesame, ricinus) were placed in plastic pots filled with soil, then covered with 0.5-2 cm of soil, allowed to grow in a good greenhouse environment. […] The tested compounds of the present invention were respectively dissolved in acetone, then added with Tween 80 and 1.5 liter/ha of emulsifiable concentrate of methyl oleate as synergist, diluted with a certain amount of water to obtain a solution with a certain concentration, and sprayed with a spray tower onto the plants. […]
(§6) If there is no clear marker, the post-seedling test conditions are the same as above, and the experimental results are shown in Tables 4-7.

[12] = system: Alopecurus japonicas; experiment: as above; assay type: in vivo; details: Table 6, post-seedling test conditions
Text: as §5
(§7) Experiment on weeding effect in post-emergence stage: monocotyledonous and dicotyledonous weed seeds (Descurainia sophia, Capsella bursa-pastoris, Galium aparine, Stellaria media, Lithospermum arvense, Rorippa indica, Alopecurus aequalis, Beckmannia syzigachne, Sclerochloa dura, Phleum paniculatum, Bromus japonicus, Aegilops tauschii, Phalaris arundinacea, Amaranthus retroflexus, Chenopodiaceae, Commelina communis, Sonchus arvensis, convolvulus arvensis, Cirsium setosum, Solanum nigrum, Acalypha australis, Digitaria sanguinalis, Echinochloa crusgalli, Setaria viridis, Setaria glauca, Leptochloa chinensis, Monochoria vaginalis, Sagittaria trifolia, Scirpus juncoides, Cyperus rotundus, Cyperus iria, Cyperus difformis, Fimbristylis, Portulaca oleracea, Xanthium sibiricum, Pharbitis nil) and major crop seeds (wheat, corn, rice, soybean, cotton, oilseed rape, millet, sorghum, potato, sesame, ricinus) were placed in plastic pots filled with soil, then covered with 0.5-2 cm of soil, allowed to grow in a good greenhouse environment. After 2 weeks of sowing, the test plants were treated in the 2 leaf stage. The tested compounds of the present invention were respectively dissolved in acetone, then added with Tween 80 and 1.5 liter/ha of emulsifiable concentrate of methyl oleate as synergist, diluted with a certain amount of water to obtain a solution with a certain concentration, and sprayed with a spray tower onto the plants. After the application, the plants were cultured for 15 days in the greenhouse, and then the experimental results of the weeding were counted. The doses of the used compounds were 500, 250, 125, 60, 30, 15 g/ha, and the averages were obtained by repeating for three times.
as §6

[13] = system: Digitaria sanguinalis; experiment: as above; assay type: in vivo; details: Table 6, post-seedling test conditions
Text: as §5, §7, §6

SMILES	Herbicidal effects of compounds, Echinochloa crusgali, 0-5 activity standard level ([1]; 60 g/ha)	Herbicidal effects of compounds, Leptochloa chinensis, 0-5 activity standard level ([2]; 60 g/ha)	Herbicidal effects of compounds, Sagittaria trifolia, 0-5 activity standard level ([3]; 60 g/ha)	Herbicidal effects of compounds, Monochoria vaginalis, 0-5 activity standard level ([4]; 60 g/ha)	weeding effect in post-emergence stage, activity level (growth control rate), Abutilon theophrasti [5]	weeding effect in post-emergence stage, activity level (growth control rate), Echinochloa crusgali [6]	weeding effect in post-emergence stage, activity level (growth control rate), Amaranthus retroflexus [7]	weeding effect in post-emergence stage, activity level (growth control rate), Setaria viridis [8]	weeding effect in post-emergence stage, activity level (growth control rate), Digitaria sanguinalis [9]	Herbicidal effects of compounds, Rice, 0-5 activity standard level [10]	Results of comparison experiment, Green Setaria viridis (30 g/ha) [11] [%]	Results of comparison experiment, Alopecurus japonicas (120 g/ha) [12] [%]	Results of comparison experiment, Digitaria sanguinalis (30 g/ha) [13] [%]	also measured
COc1cnc(OC)n2nc(NS(=O)(=O)c3c(OCC(F)F)cccc3C(F)(F)F)nc12 [Penoxsulam, reference compound]	–	–	–	–	–	–	–	–	–	–	–	–	–	Herbicidal effects of compounds, Echinochloa crusgali, 0-5 activity standard level ([1]; 30 g/ha): 0 (Level 0: growth control rate is less than 5%); Herbicidal effects of compounds, Leptochloa chinensis, 0-5 activity standard level ([2]; 30 g/ha): 1 (Level 1: growth control rate is greater than or equal to 5% and less than 20%); Herbicidal effects of compounds, Sagittaria trifolia, 0-5 activity standard level ([3]; 30 g/ha): 0 (Level 0: growth control rate is less than 5%); Herbicidal effects of compounds, Monochoria vaginalis, 0-5 activity standard level ([4]; 30 g/ha): 1 (Level 1: growth control rate is greater than or equal to 5% and less than 20%)
Cc1nnc(NC(=O)c2ccc(C(F)(F)F)c([S@+]([O-])CC(C)C)c2F)o1 [Compound 6]	5 (Level 5: growth control rate is above 85%)	5 (Level 5: growth control rate is above 85%)	5 (Level 5: growth control rate is above 85%)	5 (Level 5: growth control rate is above 85%)	5 (Level 5: growth control rate is above 85%)	5 (Level 5: growth control rate is above 85%)	5 (Level 5: growth control rate is above 85%)	5 (Level 5: growth control rate is above 85%)	5 (Level 5: growth control rate is above 85%)	0 (Level 0: growth control rate is less than 5%)	–	–	–	–
CSc1c(C(=O)Nc2nnc(C)o2)ccc(C(F)(F)F)c1[S@@+](C)[O-] [Compound 547]	–	–	–	–	–	–	–	–	–	–	80	40	90	–
CCSc1c(C(F)(F)F)ccc(C(=O)Nc2nnc(C)o2)c1SC [Control Compound D′]	–	–	–	–	–	–	–	–	–	–	20	0	–	pest or weed control at 30 g/ha ([13]; Digitaria sanguinalis, post-emergence): 20%
Cc1nnc(NC(=O)c2ccc(C(F)(F)F)c([S@+]([O-])CCCCl)c2F)o1 [Compound 37]	5 (Level 5: growth control rate is above 85%)	5 (Level 5: growth control rate is above 85%)	5 (Level 5: growth control rate is above 85%)	5 (Level 5: growth control rate is above 85%)	5 (Level 5: growth control rate is above 85%)	5 (Level 5: growth control rate is above 85%)	5 (Level 5: growth control rate is above 85%)	5 (Level 5: growth control rate is above 85%)	5 (Level 5: growth control rate is above 85%)	0 (Level 0: growth control rate is less than 5%)	–	–	–	–
Cc1nnc(NC(=O)c2ccc(C(F)(F)F)c([S@+]([O-])C3COC3)c2F)o1 [Compound 79]	5 (Level 5: growth control rate is above 85%)	5 (Level 5: growth control rate is above 85%)	5 (Level 5: growth control rate is above 85%)	5 (Level 5: growth control rate is above 85%)	5 (Level 5: growth control rate is above 85%)	5 (Level 5: growth control rate is above 85%)	5 (Level 5: growth control rate is above 85%)	5 (Level 5: growth control rate is above 85%)	5 (Level 5: growth control rate is above 85%)	0 (Level 0: growth control rate is less than 5%)	–	–	–	–
CSc1c(C(=O)Nc2nnc(C)o2)ccc(C(F)(F)F)c1[S+](C)[O-] (stereo not shown) [Control Compound E′]	–	–	–	–	–	–	–	–	–	–	40	15	40	–
CSc1c(C(=O)Nc2nnc(C)o2)ccc(C(F)(F)F)c1[S+](C)[O-] (stereo not shown) [Control Compound F′]	–	–	–	–	–	–	–	–	–	–	5	0	0	–
